Results from patent US8598154B2 (Corcept Therapeutics, Inc., priority 2010, dated 2013).

How the values were obtained:
[1] = target: T1, Human Recombinant Glucocorticoid Receptor (Homo sapiens, UniProt P04150); assay: Glucocorticoid receptor binding displacement assay with 3H-dexamethasone; conditions: displacement of 2.5 nM 3H-dexamethasone; Ki from IC50 by Cheng-Prusoff; read-out: GR Binding Ki
T1 construct: This GR was a full-length steroid hormone receptor likely to be associated with heat-shock and other endogenous proteins; host or cells: baculovirus-infected insect cells
T1 sequence (P04150 1-777): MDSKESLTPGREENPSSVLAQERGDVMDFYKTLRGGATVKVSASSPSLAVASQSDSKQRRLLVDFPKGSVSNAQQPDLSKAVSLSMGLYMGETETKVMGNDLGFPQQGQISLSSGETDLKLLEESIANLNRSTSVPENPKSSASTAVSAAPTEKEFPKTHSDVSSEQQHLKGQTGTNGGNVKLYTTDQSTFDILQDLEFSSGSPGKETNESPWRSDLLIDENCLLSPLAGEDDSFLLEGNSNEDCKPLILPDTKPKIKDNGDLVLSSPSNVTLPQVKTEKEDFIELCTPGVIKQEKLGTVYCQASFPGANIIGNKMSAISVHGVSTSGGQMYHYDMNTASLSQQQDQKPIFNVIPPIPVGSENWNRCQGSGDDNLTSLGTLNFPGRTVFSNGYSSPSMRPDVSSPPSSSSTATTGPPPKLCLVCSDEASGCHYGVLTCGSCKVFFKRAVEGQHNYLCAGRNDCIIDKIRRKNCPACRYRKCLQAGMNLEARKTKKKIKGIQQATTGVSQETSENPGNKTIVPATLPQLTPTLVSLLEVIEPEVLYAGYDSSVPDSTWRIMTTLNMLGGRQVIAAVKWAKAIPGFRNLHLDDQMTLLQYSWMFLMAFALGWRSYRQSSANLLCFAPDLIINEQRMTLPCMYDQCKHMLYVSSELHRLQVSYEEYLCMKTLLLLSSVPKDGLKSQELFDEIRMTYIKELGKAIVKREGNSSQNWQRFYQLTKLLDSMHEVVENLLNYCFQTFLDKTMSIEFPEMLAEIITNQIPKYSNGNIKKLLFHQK
Protocol: The source of the receptor was recombinant baculovirus-infected insect cells. This GR was a full-length steroid hormone receptor likely to be associated with heat-shock and other endogenous proteins.
For the Primary Screen, test compounds were tested at 1 μM in duplicate. These compounds were diluted from 10 mM stock in 100% DMSO. After dilution to 100 μM, 5 μl were added to 245 μl assay buffer to obtained 2 μM compound and 2% DMSO.
For the IC50 determinations, test compounds were tested at 6 concentrations in duplicate (concentration range depends on % inhibition binding that was obtained in the Primary Screen). Test compounds were diluted from 10 mM stock in 100% DMSO. The tested solutions were prepared at 2× final assay concentration in 2% DMSO/assay buffer.
All reagents and the assay plate were kept on ice during the addition of reagents. […] After the additions, the incubation mixture was mixed and incubated for 2.5 hrs at 4° C.
After 2.5 hrs incubation, unbound counts were removed with dextran coated charcoal (DCC) as follows: 25 μl of DCC solution (10% DCC in assay buffer) was added to all wells and mixed (total volume 225 μl). The plate was centrifuged at 4000 rpm for 10 minutes at 4° C. 75 μl of the supernatants (i.e.⅓ of total volume) was carefully pipetted into an optiplate. 200 μl of scintillation cocktail were added (Microscint-40, Packard Bioscience. B.V.). The plate was vigorously shaken for approx. 10 minutes and counted on Topcount.
The IC50 values were converted to Ki (the inhibition constant) using the Cheng-Prusoff equation. Test results are presented in Tablel.
Reagents: Assay buffer: 10 mM potassium phosphate buffer pH 7.6 containing 5 mM DTT, 10 mM sodium molybdate, 100 μM EDTA and 0.1% BSA.

[2] = target: T2, glucocorticoid receptors (GR) in SW1353/MMTV-5 cells (Homo sapiens, UniProt P04150); assay: GR functional assay using SW1353/MMTV-5 cells (MMTV-luciferase reporter); assay type: cell-based
T2 construct: contains endogenous glucocorticoid receptors; endogenous in cells; host or cells: SW1353/MMTV-5 (human chondrosarcoma, stably transfected with the pMAMneo-Luc reporter only)
T2 sequence (P04150 1-777): T1 sequence (P04150 1-777)
Protocol: SW1353/MMTV-5 is an adherent human chondrosarcoma cell line that contains endogenous glucocorticoid receptors. It was transfected with a plasmid (pMAMneo-Luc) encoding firefly luciferase located behind a glucocorticoid-responsive element (GRE) derived from a viral promoter (long terminal repeat of mouse mammary tumor virus). A stable cell line SW1353/MMTV-5 was selected with geneticin, which was required to maintain this plasmid.
SW1353/MMTV-5 cells were distributed in 96-well plates and incubated in medium (without geneticin) for 24 hrs (in the absence of CO2).

| SMILES | Ki [1] [nM] | Ki [2] [nM] |
| --- | --- | --- |
| CCOC[C@]12Cc3cnn(-c4ccc(F)cc4)c3C=C1CCN(S(=O)(=O)c1ccc(N(C)C)nc1)C2 [Example 8, (R)-6-[[6-Dimethylamino-3-pyridinyl]sulfonyl]-4a-ethoxymethyl-1-(4-fluorophenyl)-1,4,7,8-tetrahydro-1,2,6-triazacyclopenta[b]naphthalene] | < 0.5 | < 10 |
| COC[C@]12Cc3cnn(-c4ccc(F)cc4)c3C=C1CCN(S(=O)(=O)c1cncc(N3CC[C@H](F)C3)c1)C2 [Example 41, (R)-1-(4-Fluorophenyl)-6-[5-((S)-3-fluoropyrrolidin-1-yl)-pyridine-3-sulfonyl]-4a-methoxymethyl-4,4a,5,6,7,8-hexahydro-1H-1,2,6-triaza-cyclopenta[b]naphthalene] | 0.5 to 1 | < 10 |
| COC[C@]12Cc3cnn(-c4ccc(F)cc4)c3C=C1CCN(S(=O)(=O)c1ccc(C(F)(F)F)nc1)C2 [Example 24, (R)-1-(4-Fluorophenyl)-4a-methoxymethyl-6-(6-trifluoromethylpyridine-3-sulfonyl)-4,4a,5,6,7,8-hexahydro-1H-1,2,6-triaza-cyclopenta[b]naphthalene] | > 1 | 10 to 50 |
| CCOC[C@]12Cc3cnn(-c4ccc(F)cc4)c3C=C1CCN(S(=O)(=O)c1cccnc1)C2 [Example 2, (R)-4a-Ethoxymethyl-1-(4-fluorophenyl)-6-[[3-pyridinyl]sulfonyl]-1,4,7,8-tetrahydro-1,2,6-triazacyclopenta[b]naphthalene] | 0.5 to 1 | 10 to 50 |
| O=S(=O)(c1ccc(N2CC(O)C2)nc1)N1CCC2=Cc3c(cnn3-c3ccc(F)cc3)C[C@]2(COCC2CC2)C1 [Example 31, 1-{5-[(R)-4a-Cyclopropylmethoxymethyl-1-(4-fluorophenyl)-1,4,4a,5,6,7,8-hexahydro-1,2,6-triaza-cyclopenta[b]naphthalene-6-sulfonyl]-pyridin-2-yl}-azetidin-3-ol] | 0.5 to 1 | 10 to 50 |
| O=S(=O)(c1ccc(N2CCC2)nc1)N1CCC2=Cc3c(cnn3-c3ccc(F)cc3)C[C@]2(COC(F)F)C1 [Example 17, (R)-6-(6-Azetidin-1-ylpyridine-3-sulfonyl)-4a-difluoromethoxymethyl-1-(4-fluorophenyl)-4,4a,5,6,7,8-hexahydro-1H-1,2,6-triazacyclopenta[b]naphthalene] | > 1 | 10 to 50 |
| CCOC[C@]12Cc3cnn(-c4ccc(F)cc4)c3C=C1CCN(S(=O)(=O)c1ccc(N3CCCC3)nc1)C2 [Example 4, (R)-4a-Ethoxymethyl-1-(4-fluorophenyl)-6-[[6-(1-pyrrolidinyl)-3-pyridinyl]sulfonyl]-1,4,7,8-tetrahydro-1,2,6-triazacyclopenta[b]naphthalene] | > 1 | 10 to 50 |
| COC[C@]12Cc3cnn(-c4ccc(F)cc4)c3C=C1CCN(S(=O)(=O)c1ccc(N3CC[C@@H](F)C3)nc1)C2 [Example 20, (R)-1-(4-Fluorophenyl)-6-[6-((R)-3-fluoropyrrolidin-1-yl)-pyridine-3-sulfonyl]-4a-methoxymethyl-4,4a,5,6,7,8-hexahydro-1H-1,2,6-triaza-cyclopenta[b]naphthalene] | > 1 | 10 to 50 |
| O=S(=O)(c1ccc(N2CCCC2)nc1)N1CCC2=Cc3c(cnn3-c3ccc(F)cc3)C[C@]2(COCC2CC2)C1 [Example 25, (R)-4a-Cyclopropylmethoxymethyl-1-(4-fluorophenyl)-6-(6-pyrrolidin-1-yl-pyridine-3-sulfonyl)-4,4a,5,6,7,8-hexahydro-1H-1,2,6-triaza-cyclopenta[b]naphthalene] | 0.5 to 1 | < 10 |
| COC[C@]12Cc3cnn(-c4ccc(F)cc4)c3C=C1CCN(S(=O)(=O)c1ccc(N(C)C)nc1)C2 [Example 10, (R)-6-[[6-Dimethylamino-3-pyridinyl]sulfonyl]-1-(4-fluorophenyl)-4a-methoxymethyl-1,4,7,8-tetrahydro-1,2,6-triazacyclopenta[b]naphthalene] | 0.5 to 1 | 10 to 50 |
| O=S(=O)(c1ccc(N2CC[C@@H](F)C2)nc1)N1CCC2=Cc3c(cnn3-c3ccc(F)cc3)C[C@]2(CN2CC[C@H](O)C2)C1 [Example 47, (S)-1-{(S)-1-(4-Fluorophenyl)-6-[6-((R)-3-fluoro-pyrrolidin-1-yl)-pyridine-3-sulfonyl]-1,4,5,6,7,8-hexahydro-1,2,6-triaza-cyclopenta[b]naphthalene-4a-ylmethyl}-pyrrolidin-3-ol] | > 1 | > 50 |
| COC[C@]12Cc3cnn(-c4ccc(F)cc4)c3C=C1CCN(S(=O)(=O)c1cncc(N3CC(O)C3)c1)C2 [Example 36, 1-{5-[(R)-1-(4-Fluorophenyl)-4a-methoxymethyl-1,4,4a,5,6,7,8-hexahydro-1,2,6-triaza-cyclopenta[b]naphthalene-6-sulfonyl]-pyridin-3-yl}-azetidin-3-ol] | 0.5 to 1 | > 50 |
| O=S(=O)(c1ccc(N2CCOCC2)nc1)N1CCC2=Cc3c(cnn3-c3ccc(F)cc3)C[C@]2(CN2CC[C@H](O)C2)C1 [Example 62, (S)-1-[(S)-1-(4-Fluorophenyl)-6-[6-morpholin-4-yl-pyridine-3-sulfonyl)-1,4,5,6,7,8-hexahydro-1,2,6-triaza-cyclopenta[b]naphthalene-4a-ylmethyl]-pyrrolidin-3-ol] | > 1 | > 50 |
| O=S(=O)(c1ccc(N2CCOCC2)nc1)N1CCC2=Cc3c(cnn3-c3ccc(F)cc3)C[C@]2(COC(F)F)C1 [Example 15, (R)-4a-Difluoromethoxymethyl-1-(4-fluorophenyl)-6-(6-morpholin-4-yl-pyridine-3-sulfonyl)-4,4a,5,6,7,8-hexahydro-1H-1,2,6-triazacyclopenta[b]naphthalene] | > 1 | 10 to 50 |
| CCOC[C@]12Cc3cnn(-c4ccc(F)cc4)c3C=C1CCN(S(=O)(=O)c1ccc(N3CCOCC3)nc1)C2 [Example 1, (R)-4a-Ethoxymethyl-1-(4-fluorophenyl)-6-[[6-(4-morpholinyl)-3-pyridinyl]sulfonyl]-1,4,7,8-tetrahydro-1,2,6-triazacyclopenta[b]naphthalene] | < 0.5 | < 10 |
| CCOC[C@]12Cc3cnn(-c4ccc(F)cc4)c3C=C1CCN(S(=O)(=O)c1ccc(N3CCC3)nc1)C2 [Example 6, (R)-6-[[6-(1-Azetidinyl)-3-pyridinyl]sulfonyl]-4a-ethoxymethyl-1-(4-fluorophenyl)-1,4,7,8-tetrahydro-1,2,6-triazacyclopenta[b]naphthalene] | 0.5 to 1 | 10 to 50 |
| COC[C@]12Cc3cnn(-c4ccc(F)cc4)c3C=C1CCN(S(=O)(=O)c1cncc(N3CC(F)C3)c1)C2 [Example 37, (R)-6-[5-(3-Fluoroazetidin-1-yl)-pyridine-3-sulfonyl]-1-(4-fluorophenyl)-4a-methoxymethyl-4,4a,5,6,7,8-hexahydro-1H-1,2,6-triaza-cyclopenta[b]naphthalene] | 0.5 to 1 | < 10 |
| O=S(=O)(c1ccc(N2CC[C@H](F)C2)nc1)N1CCC2=Cc3c(cnn3-c3ccc(F)cc3)C[C@]2(COCC2CC2)C1 [Example 27, (R)-4a-Cyclopropylmethoxymethyl-1-(4-fluorophenyl)-6-(6-((S)-3-fluoropyrrolidin-1-yl)-pyridine-3-sulfonyl)-4,4a,5,6,7,8-hexahydro-1H-1,2,6-triaza-cyclopenta[b]naphthalene] | 0.5 to 1 | < 10 |
